From patent US20160238590A1, “COMPOSITIONS AND METHODS RELATED TO OAT SENSITIVITY” (IMMUSANT, INC., priority 2013, published 2016) come the findings set out here.

What all share (assay type): cell-based, human
One experiment relates to Patient 2 TCC-03. The experiment can be described thus: IFN-γ ELISpot with T cell clone. Particulars: TCC Patient 2 TCC-03, peptide 25 μg/mL. The procedure, abridged:
(§1)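 T cell clones from coeliac patients were derived by single-cell sorting of CFSE-labeled PBMC that proliferated after 7 days with antigen in IMDM plus 5% pooled human serum. Clones were expanded with IL-2 and IL-4, and IFN-γ ELISpot tested their specificity using irradiated HLA-matched PBMC as antigen-presenting cells.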

In a further experiment the test system is Patient 2 TCC-01. Description: IFN-γ ELISpot with T cell clone. Put shortly: as §1
Another experiment relates to Patient 8 TCC-01. The experiment can be described thus: IFN-γ ELISpot with T cell clone. Particulars: TCC Patient 8 TCC-01, peptide 25 μg/mL. Put shortly: as §1
For the next experiment, the system named is Patient 9 TCC-02. Description: IFN-γ ELISpot with T cell clone. The conditions noted are these: TCC Patient 9 TCC-02, peptide 50 μg/mL. The procedure, abridged: as §1
The subject of a further experiment is Patient 9 TCC-01. Description: IFN-γ ELISpot with T cell clone. Particulars: TCC Patient 9 TCC-01, peptide 50 μg/mL. Put shortly:
as §1

The test system of a further experiment is Patient 6 TCC-01. Description: IFN-γ ELISpot with T cell clone. Put shortly: as §1
The subject of the next experiment is Patient 10 TCC-01. The experiment can be described thus: IFN-γ ELISpot with T cell clone. The conditions noted are these: TCC Patient 10 TCC-01, peptide 50 μg/mL. Put shortly: as §1
The next experiment concerns Patient 2 TCC-02. Description: IFN-γ ELISpot with T cell clone. The conditions noted are these: TCC Patient 2 TCC-02, peptide 25 μg/mL. The procedure, abridged: as §1
The subject of a further experiment is Patient 14 TCC-01. Description: IFN-γ ELISpot with T cell clone. Particulars: TCC Patient 14 TCC-01, peptide 50 μg/mL. Put shortly:
as §1

The next experiment has as its system PBMC. The experiment can be described thus: IFN-γ ELISpot on PBMC of CD patients after 3-day barley challenge. The procedure, abridged: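 PBMC from HLA-DQ2.5+/DQ8+ biopsy-proven coeliac patients on gluten-free diet ≥4 weeks, collected on day 6 after starting a 3-day oral challenge (oats 100 g/day, barley 150 g/day, or wheat/barley/rye muffins 22-25 g each daily). Responses to avenin, hordein and gluten peptide libraries, some deamidated or tTG-treated, measured by IFN-γ ELISpot.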

Setting [1] is: TCC Patient 2 TCC-01, peptide 25 μg/mL.
[2] abbreviates: TCC Patient 2 TCC-01, peptide 50 μg/mL.
Setting [3] is: TCC Patient 6 TCC-01, peptide 25 μg/mL.
The mark [4] stands for this setting: TCC Patient 6 TCC-01, peptide 50 μg/mL.

Where no end group is shown, it is not given here. [ ]: non-standard residue; d: D form. pGlu = O=C1CC[C@@H](C(=O)O)N1

With “PEQPFPEQPQPYPQQP (not fully specified (C-terminus))”, the “IFN-γ ELISpot response (SFU)” value in the experiment with Patient 2 TCC-03 stood at 159 SFU; with Patient 2 TCC-01 (setting [1]) it was 151 SFU; in the experiment on Patient 8 TCC-01 it was 145 SFU; in the experiment with Patient 6 TCC-01 (setting [3]), 59 SFU; with Patient 2 TCC-02 it was 5 SFU. Besides, the “significant SFU as a percentage of maximal peptide SFU” value (“significant SFU as a percentage” below) in the experiment on Patient 2 TCC-03 is “*** (***: >70%)”; in the experiment with Patient 2 TCC-01 (setting [1]) it was “** (**: 40-70%)”; with Patient 2 TCC-01 (setting [2]), “** (**: 40-70%)”; with Patient 8 TCC-01 it was “*** (***: >70%)”; in the experiment with Patient 6 TCC-01 (setting [3]), “** (**: 40-70%)”; with Patient 6 TCC-01 (setting [4]) it was “*** (***: >70%)”. Further, in the experiment on Patient 14 TCC-01, the “significant SFU as a percentage” value is recorded as “*** (***: >70%)”. Moreover, the “IFN-γ ELISpot response (raw SFU)” value with Patient 2 TCC-01 (setting [2]) is 202 SFU; with Patient 9 TCC-02 it was 0 SFU; with Patient 9 TCC-01 it was 0 SFU; with Patient 6 TCC-01 (setting [4]), 73 SFU; in the experiment on Patient 10 TCC-01, 3 SFU; with Patient 14 TCC-01, 66 SFU.

For the sequence “QPQPYPEQPQPYP ([pGlu]PQPYPEQPQPYP-NH2; SMILES NC(=O)CC[C@H](NC(=O)[C@H](CCC(=O)O)NC(=O)[C@@H]1CCCN1C(=O)[C@H](Cc1ccc(O)cc1)NC(=O)[C@@H]1CCCN1C(=O)[C@H](CCC(N)=O)NC(=O)[C@@H]1CCCN1C(=O)[C@@H]1CCC(=O)N1)C(=O)N1CCC[C@H]1C(=O)N[C@@H](CCC(N)=O)C(=O)N1CCC[C@H]1C(=O)N[C@@H](Cc1ccc(O)cc1)C(=O)N1CCC[C@H]1C(N)=O)”, the “responses compared with DQ2.5-hor-3a responses” value with PBMC (2/3 patients, after barley challenge (FIG. 1b)) is “almost equivalent”. The “response following barley challenge” value with PBMC (3 oats responders, titrating concentrations (FIG. 1b)) is listed as “responded to all three peptides to varying degrees”. In addition, in the experiment with PBMC (third patient, after barley challenge (FIG. 1b)), the “responses compared with DQ2.5-ave-1c responses” value is recorded as “equivalent”. The “IFN-γ ELISpot response (SFU)” value with Patient 2 TCC-03 stood at 132 SFU; with Patient 2 TCC-01 (setting [1]), 232 SFU; in the experiment with Patient 8 TCC-01 it was 175 SFU; in the experiment on Patient 6 TCC-01 (setting [3]) it was 86 SFU; with Patient 2 TCC-02, 1 SFU. For the same sequence, the “significant SFU as a percentage” value is recorded as “*** (***: >70%)” with Patient 2 TCC-03; “*** (***: >70%)” in the experiment on Patient 2 TCC-01 (setting [1]); “*** (***: >70%)” with Patient 2 TCC-01 (setting [2]); “*** (***: >70%)” in the experiment with Patient 8 TCC-01; “*** (***: >70%)” in the experiment on Patient 6 TCC-01 (setting [3]); “** (**: 40-70%)” with Patient 6 TCC-01 (setting [4]). The “significant SFU as a percentage” value in the experiment on Patient 14 TCC-01 was “* (*: 20-40%)”. The “IFN-γ ELISpot response (raw SFU)” value with Patient 2 TCC-01 (setting [2]) is listed as 316 SFU; in the experiment with Patient 9 TCC-02, 0 SFU; in the experiment with Patient 9 TCC-01 it was 1 SFU; in the experiment with Patient 6 TCC-01 (setting [4]) it was 52 SFU; with Patient 10 TCC-01, 3 SFU; in the experiment on Patient 14 TCC-01, 27 SFU.
